Tested on: conscious spontaneously hypertensive rats (SHR Okamoto)
Assay: Radiotelemetric measurement of blood pressure on conscious spontaneously hypertensive rats
Assay type: in vivo, rat
Excerpt: A commercially available telemetry system from DATA SCIENCES INTERNATIONAL DSI, USA, is employed for the blood pressure measurements on conscious rats described below.
The system consists of 3 main components: • implantable transmitters (Physiotel® telemetry transmitter) • receivers (Physiotel® receiver) which are linked via a multiplexer (DSI Data Exchange Matrix) to a • data acquisition computer.
The telemetry system makes it possible to continuously record blood pressure, heart rate and body motions of conscious animals in their usual habitat.
The investigations are carried out on adult female spontaneously hypertensive rats (SHR Okamoto) with a body weight of >200 g. SHR/NCrl from the Okamoto Kyoto School of Medicine, 1963 were a cross of male Wistar Kyoto rats with highly elevated blood pressure and female rats having a slightly elevated blood pressure and at F13 handed over to the U.S. National Institutes of Health.
After transmitter implantation, the experimental animals are housed singly in type 3 Makrolon cages. They have free access to standard feed and water.
The day/night rhythm in the experimental laboratory is changed by the room lighting at 6.00 am and at 7.00 pm.
The telemetry transmitters TA11 PA-C40 used are surgically implanted under aseptic conditions in the experimental animals at least 14 days before the first experimental use. The animals instrumented in this way can be employed repeatedly after the wound has healed and the implant has settled.
For the implantation, the fasted animals are anaesthetized with pentobarbital (Nembutal, Sanofi: 50 mg/kg i.p.) and shaved and disinfected over a large area of their abdomens. After the abdominal cavity has been opened along the linea alba, the liquid-filled measuring catheter of the system is inserted into the descending aorta in the cranial direction above the bifurcation and fixed with tissue glue (VetBonD™, 3M). The transmitter housing is fixed intraperitoneally to the abdominal wall muscle, and layered closure of the wound is performed.
An antibiotic (Tardomyocel COMP, Bayer, 1 ml/kg s.c.) is administered postoperatively for prophylaxis of infection.
Unless indicated otherwise, the substances to be investigated are administered orally by gavage in each case to a group of animals (n=6). The test substances are dissolved in suitable solvent mixtures, or suspended in 0.5% strength Tylose, appropriate for an administration volume of 5 ml/kg of body weight.
A solvent-treated group of animals is employed as control.
The telemetry measuring unit present is configured for 24 animals. Each experiment is recorded under an experiment number (Vyear month day).
Each of the instrumented rats living in the system is assigned a separate receiving antenna (1010 Receiver, DSI).
The implanted transmitters can be activated externally by means of an incorporated magnetic switch and are switched to transmission in the run-up to the experiment. The emitted signals can be detected online by a data acquisition system (Dataquest™ A.R.T. for Windows, DSI) and be appropriately processed. The data are stored in each case in a file created for this purpose and bearing the experiment number.
In the standard procedure, the following are measured for 10-second periods in each case: • systolic blood pressure (SBP) • diastolic blood pressure (DBP) • mean arterial pressure (MAP) • heart rate (HR) • activity (ACT).
The acquisition of measured values is repeated under computer control at 5-minute intervals. The source data obtained as absolute value are corrected in the diagram with the currently measured barometric pressure (Ambient Pressure Reference Monitor; APR-1) and stored as individual data. Further technical details are given in the extensive documentation from the manufacturing company (DSI).
Unless indicated otherwise, the test substances are administered at 9.00 am on the day of the experiment. Following the administration, the parameters described above are measured over 24 hours. […]

[1] = 0.3 mg/kg p.o., 0 hours after substance administration
[2] = 0.3 mg/kg p.o., 1 hours after substance administration
[3] = 0.3 mg/kg p.o., 2 hours after substance administration
[4] = 0.3 mg/kg p.o., 3 hours after substance administration
[5] = 0.3 mg/kg p.o., 4 hours after substance administration
[6] = 0.3 mg/kg p.o., 5 hours after substance administration
[7] = 0.3 mg/kg p.o., 6 hours after substance administration
[8] = 0.3 mg/kg p.o., 7 hours after substance administration
[9] = 0.3 mg/kg p.o., 8 hours after substance administration
[10] = 0.3 mg/kg p.o., 9 hours after substance administration
[11] = 0.3 mg/kg p.o., 10 hours after substance administration
[12] = 0.3 mg/kg p.o., 11 hours after substance administration
[13] = 0.3 mg/kg p.o., 12 hours after substance administration
[14] = 0.3 mg/kg p.o., 13 hours after substance administration
[15] = 0.3 mg/kg p.o., 14 hours after substance administration
[16] = 0.3 mg/kg p.o., 15 hours after substance administration
[17] = 0.3 mg/kg p.o., 16 hours after substance administration
[18] = 0.3 mg/kg p.o., 17 hours after substance administration
[19] = 0.3 mg/kg p.o., 18 hours after substance administration
[20] = 0.3 mg/kg p.o., 19 hours after substance administration
[21] = 0.3 mg/kg p.o., 20 hours after substance administration
[22] = 0.3 mg/kg p.o., 21 hours after substance administration
[23] = 0.3 mg/kg p.o., 22 hours after substance administration
[24] = 0.3 mg/kg p.o., 23 hours after substance administration
[25] = 0.3 mg/kg p.o., 24 hours after substance administration

**Q.** Which results are given for `COC(=O)Nc1c(N)nc(-c2nn(Cc3ccccc3F)c3ncc(F)cc23)nc1N` [Example 1, Methyl {4,6-diamino-2-[5-fluoro-1-(2-fluorobenzyl)-1H-pyrazolo[3,4-b]pyridin-3-yl]pyrimidin-5-yl}carbamate]?
**A.** mean blood pressure [1]: 151.0 mm Hg; mean blood pressure [2]: 148.4 mm Hg; mean blood pressure [3]: 136.4 mm Hg; mean blood pressure [4]: 130.6 mm Hg; mean blood pressure [5]: 129.1 mm Hg; mean blood pressure [6]: 132.8 mm Hg; mean blood pressure [7]: 125.6 mm Hg; mean blood pressure [8]: 131.9 mm Hg; mean blood pressure [9]: 131.8 mm Hg; mean blood pressure [10]: 138.5 mm Hg; mean blood pressure [11]: 138.3 mm Hg; mean blood pressure [12]: 138.9 mm Hg; mean blood pressure [13]: 137.7 mm Hg; mean blood pressure [14]: 142.9 mm Hg; mean blood pressure [15]: 144.5 mm Hg; mean blood pressure [16]: 143.8 mm Hg; mean blood pressure [17]: 146.3 mm Hg; mean blood pressure [18]: 141.8 mm Hg; mean blood pressure [19]: 138.4 mm Hg; mean blood pressure [20]: 149.2 mm Hg; mean blood pressure [21]: 145.1 mm Hg; mean blood pressure [22]: 142.1 mm Hg; mean blood pressure [23]: 141.8 mm Hg; mean blood pressure [24]: 143.6 mm Hg; mean blood pressure [25]: 135.1 mm Hg; mean blood pressure (3.0 mg/kg p.o., 0 hours after substance administration): 149.0 mm Hg; mean blood pressure (3.0 mg/kg p.o., 1 hours after substance administration): 129.3 mm Hg; mean blood pressure (3.0 mg/kg p.o., 2 hours after substance administration): 111.1 mm Hg; mean blood pressure (3.0 mg/kg p.o., 3 hours after substance administration): 106.0 mm Hg; mean blood pressure (3.0 mg/kg p.o., 4 hours after substance administration): 107.8 mm Hg; mean blood pressure (3.0 mg/kg p.o., 5 hours after substance administration): 109.3 mm Hg; mean blood pressure (3.0 mg/kg p.o., 6 hours after substance administration): 106.8 mm Hg; mean blood pressure (3.0 mg/kg p.o., 7 hours after substance administration): 110.9 mm Hg; mean blood pressure (3.0 mg/kg p.o., 8 hours after substance administration): 109.8 mm Hg; mean blood pressure (3.0 mg/kg p.o., 9 hours after substance administration): 114.3 mm Hg; mean blood pressure (3.0 mg/kg p.o., 10 hours after substance administration): 114.5 mm Hg; mean blood pressure (3.0 mg/kg p.o., 11 hours after substance administration): 115.6 mm Hg; mean blood pressure (3.0 mg/kg p.o., 12 hours after substance administration): 118.8 mm Hg; mean blood pressure (3.0 mg/kg p.o., 13 hours after substance administration): 120.4 mm Hg; mean blood pressure (3.0 mg/kg p.o., 14 hours after substance administration): 122.8 mm Hg; mean blood pressure (3.0 mg/kg p.o., 15 hours after substance administration): 125.8 mm Hg; mean blood pressure (3.0 mg/kg p.o., 16 hours after substance administration): 131.5 mm Hg; mean blood pressure (3.0 mg/kg p.o., 17 hours after substance administration): 124.7 mm Hg; mean blood pressure (3.0 mg/kg p.o., 18 hours after substance administration): 129.6 mm Hg; mean blood pressure (3.0 mg/kg p.o., 19 hours after substance administration): 135.6 mm Hg; mean blood pressure (3.0 mg/kg p.o., 20 hours after substance administration): 135.2 mm Hg; mean blood pressure (3.0 mg/kg p.o., 21 hours after substance administration): 129.3 mm Hg; mean blood pressure (3.0 mg/kg p.o., 22 hours after substance administration): 128.3 mm Hg; mean blood pressure (3.0 mg/kg p.o., 23 hours after substance administration): 130.2 mm Hg; mean blood pressure (3.0 mg/kg p.o., 24 hours after substance administration): 130.8 mm Hg

**Q.** What does the source list for `COC(=O)N(C)c1c(N)nc(-c2nn(Cc3ccccc3F)c3ncc(F)cc23)nc1N` [Example 2]?
**A.** mean blood pressure [1]: 161.3 mm Hg; mean blood pressure [2]: 145.7 mm Hg; mean blood pressure [3]: 130.5 mm Hg; mean blood pressure [4]: 121.5 mm Hg; mean blood pressure [5]: 123.1 mm Hg; mean blood pressure [6]: 121.6 mm Hg; mean blood pressure [7]: 123.8 mm Hg; mean blood pressure [8]: 124.4 mm Hg; mean blood pressure [9]: 128.7 mm Hg; mean blood pressure [10]: 133.7 mm Hg; mean blood pressure [11]: 139.2 mm Hg; mean blood pressure [12]: 137.9 mm Hg; mean blood pressure [13]: 143.0 mm Hg; mean blood pressure [14]: 146.0 mm Hg; mean blood pressure [15]: 149.2 mm Hg; mean blood pressure [16]: 152.3 mm Hg; mean blood pressure [17]: 155.5 mm Hg; mean blood pressure [18]: 156.3 mm Hg; mean blood pressure [19]: 157.3 mm Hg; mean blood pressure [20]: 156.9 mm Hg; mean blood pressure [21]: 156.3 mm Hg; mean blood pressure [22]: 149.3 mm Hg; mean blood pressure [23]: 147.1 mm Hg; mean blood pressure [24]: 153.1 mm Hg; mean blood pressure [25]: 152.3 mm Hg

From patent US11439642B2 (Adverio Pharma GmbH, priority 2010, dated 2022)
